These results are taken from US20210179578A1, “OX1 ANTAGONISTS” (Heptares Therapeutics Limited, priority 2017, published 2021).

One assay has as its target T1, human OX1 receptor (Homo sapiens, UniProt O43613).
T1 sequence (O43613 1-425): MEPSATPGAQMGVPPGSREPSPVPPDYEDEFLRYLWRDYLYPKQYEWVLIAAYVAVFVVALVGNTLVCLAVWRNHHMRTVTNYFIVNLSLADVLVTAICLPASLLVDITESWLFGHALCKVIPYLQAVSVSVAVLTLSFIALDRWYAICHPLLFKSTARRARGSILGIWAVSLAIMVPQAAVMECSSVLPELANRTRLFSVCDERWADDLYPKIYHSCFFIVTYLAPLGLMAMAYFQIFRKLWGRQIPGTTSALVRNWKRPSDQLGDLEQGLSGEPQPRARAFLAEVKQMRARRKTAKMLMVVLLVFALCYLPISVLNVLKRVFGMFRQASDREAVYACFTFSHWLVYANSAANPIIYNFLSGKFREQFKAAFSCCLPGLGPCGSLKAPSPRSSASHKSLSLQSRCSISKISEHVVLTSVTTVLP
Briefly: IPone accumulation assay, CHO cells expressing OX1 (antagonism of orexin A). The assay is classed as cell-based. To be noted: IPone accumulation, CHO human OX1, orexin A EC80 challenge (~20 nM); read-out: fpKb average OX1 (converted). The procedure: Generation of CHO stable cell lines expressing the human OX1R and OX2R. Stable cell lines for the human OX1R and OX2R receptors were generated through the transfection of CHO cells using the transfection reagent Genejuice (Novagen number 70967) and cDNA coding for either the human OX1R or OX2R. Cells were cultured in Sigma Nutrient Mixture F-12 Ham media (catalog number N6658) supplemented with 10% heat-inactivated FBS. Forty-eight hours after transfection, cells were harvested and placed under geneticin selection by culturing in Sigma Nutrient Mixture F-12 Ham media supplemented with 10% heat-inactivated FBS and geneticin (ThermoFisher Catalog number: 10131035). Selection of the final stable clone for each receptor was made on the basis of receptor expression, assay signal to noise and robustness though increasing passage. Selected clones for the human OX1R and OX2R were then frozen down into liquid nitrogen using Cell Freezing Medium-DMSO (Sigma-Aldrich catalog number: C6164). IPone accumulation assay. A CHO cell line stably expressing either human OX1 or OX2 receptor was used with the IPone HTRF assay kit (CisBio: Part #62[…]) to measure receptor activation. The assay was optimised to measure the ability (potency; fpKb) of antagonists to reduce agonist (orexin A)-induced inositol phosphate turnover. Briefly, cells were plated onto half area 96-well white walled plates at a density of 12,500 cells/well. Sixteen hours post-plating cell growth media was replaced with antagonist concentration-response curve diluted in stimulation buffer (supplied with the kit). Cells were incubated in a humidified incubator (37° C.) for 30 min before an EC80 challenge concentration ( 20 nM (OX1) and 40 nM (OX2)) of orexin A (Tocris catalogue number 1455). After 30 min stimulation in a humidified incubator (37° C.) the assay was terminated by the addition of detection mixture as per manufacturer's instructions. The concentration of compound which reduced orexin-A stimulated turnover of inositol phosphates by 50% (IC50) was calculated by fitting to a four parameter sigmoidal dose response curve. The IC50 values were converted to fpKB values using the orexin A pEC50 value estimated on each plate as well as the challenge concentration interpolated from the orexin A control curve.

The target in another assay is T2, human OX2 receptor (Homo sapiens, UniProt O43614).
T2 sequence (O43614 1-444): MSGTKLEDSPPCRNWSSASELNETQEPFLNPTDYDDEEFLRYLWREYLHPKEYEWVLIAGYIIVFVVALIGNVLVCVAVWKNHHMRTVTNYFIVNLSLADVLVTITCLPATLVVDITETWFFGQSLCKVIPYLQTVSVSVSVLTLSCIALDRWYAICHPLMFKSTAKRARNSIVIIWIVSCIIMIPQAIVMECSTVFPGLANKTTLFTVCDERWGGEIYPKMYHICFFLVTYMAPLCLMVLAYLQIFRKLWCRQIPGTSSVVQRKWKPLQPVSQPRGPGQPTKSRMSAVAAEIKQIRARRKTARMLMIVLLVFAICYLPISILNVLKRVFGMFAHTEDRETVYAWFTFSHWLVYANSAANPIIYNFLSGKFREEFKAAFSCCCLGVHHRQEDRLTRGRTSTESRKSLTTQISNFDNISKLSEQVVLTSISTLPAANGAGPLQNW
Description: IPone accumulation assay, CHO cells expressing OX2 (antagonism of orexin A). The assay is classed as cell-based. To be noted: CHO human OX2, orexin A EC80 challenge (40 nM), read-out: fpKb average OX2 (converted). Here is the method: Generation of CHO stable cell lines expressing the human OX1R and OX2R. Stable cell lines for the human OX1R and OX2R receptors were generated through the transfection of CHO cells using the transfection reagent Genejuice (Novagen number 70967) and cDNA coding for either the human OX1R or OX2R. Cells were cultured in Sigma Nutrient Mixture F-12 Ham media (catalog number N6658) supplemented with 10% heat-inactivated FBS. Forty-eight hours after transfection, cells were harvested and placed under geneticin selection by culturing in Sigma Nutrient Mixture F-12 Ham media supplemented with 10% heat-inactivated FBS and geneticin (ThermoFisher Catalog number: 10131035). Selection of the final stable clone for each receptor was made on the basis of receptor expression, assay signal to noise and robustness though increasing passage. Selected clones for the human OX1R and OX2R were then frozen down into liquid nitrogen using Cell Freezing Medium-DMSO (Sigma-Aldrich catalog number: C6164).
IPone accumulation assay. A CHO cell line stably expressing either human OX1 or OX2 receptor was used with the IPone HTRF assay kit (CisBio: Part #62IPAPEJ) to measure receptor activation. The assay was optimised to measure the ability (potency; fpKb) of antagonists to reduce agonist (orexin A)-induced inositol phosphate turnover. Briefly, cells were plated onto half area 96-well white walled plates at a density of 12,500 cells/well. Sixteen hours post-plating cell growth media was replaced with antagonist concentration-response curve diluted in stimulation buffer (supplied with the kit). Cells were incubated in a humidified incubator (37° C.) for 30 min before an EC80 challenge concentration (˜20 nM (OX1) and 40 nM (OX2)) of orexin A (Tocris catalogue number 1455). After 30 min stimulation in a humidified incubator (37° C.) the assay was terminated by the addition of detection mixture as per manufacturer's instructions. The concentration of compound which reduced orexin-A stimulated turnover of inositol phosphates by 50% (IC50) was calculated by fitting to a four parameter sigmoidal dose response curve. The IC50 values were converted to fpKB values using the orexin A pEC50 value estimated on each plate as well as the challenge concentration interpolated from the orexin A control curve.

For the compound `CCCc1cc(F)c(CN2C(=O)N(c3ccc(C)c(S(C)(=O)=O)c3)CCc3c(F)cccc32)c(F)c1` [Example 28, 1-(2,6-difluoro-4-propylbenzyl)-6-fluoro-3-[4-methyl-3-(methylsulfonyl)phenyl]-1,3,4,5-tetrahydro-2H-1,3-benzodiazepin-2-one], the values for the Kb on human OX1 receptor and on human OX2 receptor were 0.0794 µM and more than 3.98 µM, respectively.

With `Cc1cc(C)c(S(C)(=O)=O)cc1N1CCc2ccccc2N(Cc2c(F)cc(Br)cc2F)C1=O` [Example 29, 1-(4-bromo-2,6-difluorobenzyl)-3-[2,4-dimethyl-5-(methylsulfonyl)phenyl]-1,3,4,5-tetrahydro-2H-1,3-benzodiazepin-2-one], the Kb was 0.0398 µM at human OX1 receptor and 0.398 µM at human OX2 receptor.

In the case of `Cc1cc(C)c(S(C)(=O)=O)cc1N1CCc2ccccc2N(Cc2c(F)cc(OC(C)C)cc2F)C1=O` [Example 30, 1-[2,6-difluoro-4-(propan-2-yloxy)benzyl]-3-[2,4-dimethyl-5-(methylsulfonyl)phenyl]-1,3,4,5-tetrahydro-2H-1,3-benzodiazepin-2-one], the Kb at human OX1 receptor was 0.0398 µM; at human OX2 receptor, 0.794 µM.

Turning to `Cc1cc(C)c(S(C)(=O)=O)cc1N1CCc2c(F)cccc2N(Cc2c(F)cc(Br)cc2F)C1=O` [Example 31, 1-(4-bromo-2,6-difluorobenzyl)-3-[2,4-dimethyl-5-(methylsulfonyl)phenyl]-6-fluoro-1,3,4,5-tetrahydro-2H-1,3-benzodiazepin-2-one], the Kb at human OX1 receptor was 0.02 µM; at human OX2 receptor it was more than 0.316 µM.

On to `Cc1ncc(N2CCc3c(F)cccc3N(Cc3c(F)cc(Br)cc3F)C2=O)cc1C(C)(F)F` [Example 32, 1-(4-bromo-2,6-difluorobenzyl)-3-[5-(1,1-difluoroethyl)-6-methylpyridin-3-yl]-6-fluoro-1,3,4,5-tetrahydro-2H-1,3-benzodiazepin-2-one], for which the Kb on human OX1 receptor was 0.0631 µM; at human OX2 receptor, more than 0.631 µM.

As to `COCc1cc(F)c(CN2C(=O)N(c3cnc(C)c(C(C)(F)F)c3)CCc3c(F)cccc32)c(F)c1` [Example 33, 3-[5-(1,1-difluoroethyl)-6-methylpyridin-3-yl]-1-[2,6-difluoro-4-(methoxymethyl)benzyl]-6-fluoro-1,3,4,5-tetrahydro-2H-1,3-benzodiazepin-2-one], the Kb was 0.0158 µM at human OX1 receptor and 1 µM on human OX2 receptor.

Consider `CCCc1cc(F)c(CN2C(=O)N(c3cnc(C)c(C(C)(F)F)c3)CCc3c(F)cccc32)c(F)c1` [Example 34, 3-[5-(1,1-difluoroethyl)-6-methylpyridin-3-yl]-1-(2,6-difluoro-4-propylbenzyl)-6-fluoro-1,3,4,5-tetrahydro-2H-1,3-benzodiazepin-2-one], for which the results for the Kb on human OX1 receptor and at human OX2 receptor were 0.0794 µM and more than 2.51 µM, respectively.

With `Cc1ncc(N2CCc3c(F)cccc3N(Cc3c(F)cc(Br)cc3F)C2=O)cc1OC(F)F` [Example 37, 1-(4-bromo-2,6-difluorobenzyl)-3-[5-(difluoromethoxy)-6-methylpyridin-3-yl]-6-fluoro-1,3,4,5-tetrahydro-2H-1,3-benzodiazepin-2-one], the Kb was 0.02 µM at human OX1 receptor and more than 3.98 µM at human OX2 receptor.
